In patent publication US8192962B2, “Processes for detecting toxic substances” (Daikin Industries, Ltd., priority 2001, dated 2012):

System: Transport facilitation protein genes
Assay: DNA chip mRNA expression in yeast, transport facilitation protein genes (Table 5)
Format: cell-based, Saccharomyces cerevisiae S288C
How it was run: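 First, S288C yeast grown in YPD at 25° C. are dosed in log phase with one toxicant (growth-inhibiting, not lethal) for 2 h. Next, total RNA is extracted and poly(A) mRNA isolated and reverse-transcribed with Cy3/Cy5-dUTP. Finally, whole-genome chip fluorescence is read relative to unexposed cells.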

## [Cl][Cd][Cl] [(2), CdCl2]
Yeast gene YGR224W
  The level of expressed mRNA in the presence of chemical substance/The level of expressed mRNA in the absence of chemical substance: 1.2
Yeast gene YGR260W
  The level of expressed mRNA in the presence of chemical substance/The level of expressed mRNA in the absence of chemical substance: 0.7
Yeast gene YGR281W
  The level of expressed mRNA in the presence of chemical substance/The level of expressed mRNA in the absence of chemical substance: 1.0
Yeast gene YHL035C
  The level of expressed mRNA in the presence of chemical substance/The level of expressed mRNA in the absence of chemical substance: 1.3
Yeast gene YHL040C
  The level of expressed mRNA in the presence of chemical substance/The level of expressed mRNA in the absence of chemical substance: 4.9
Yeast gene YHL047C
  The level of expressed mRNA in the presence of chemical substance/The level of expressed mRNA in the absence of chemical substance: 4.4
Yeast gene YHR026W
  The level of expressed mRNA in the presence of chemical substance/The level of expressed mRNA in the absence of chemical substance: 1.0
Yeast gene YHR092C
  The level of expressed mRNA in the presence of chemical substance/The level of expressed mRNA in the absence of chemical substance: 1.0
Yeast gene YHR094C
  The level of expressed mRNA in the presence of chemical substance/The level of expressed mRNA in the absence of chemical substance: 1.2
Yeast gene YHR175W
  The level of expressed mRNA in the presence of chemical substance/The level of expressed mRNA in the absence of chemical substance: 2.0
Yeast gene YIL006W
  The level of expressed mRNA in the presence of chemical substance/The level of expressed mRNA in the absence of chemical substance: 1.1
Yeast gene YIL022W
  The level of expressed mRNA in the presence of chemical substance/The level of expressed mRNA in the absence of chemical substance: 0.7
Yeast gene YIL056W
  The level of expressed mRNA in the presence of chemical substance/The level of expressed mRNA in the absence of chemical substance: 0.9
Yeast gene YIL088C
  The level of expressed mRNA in the presence of chemical substance/The level of expressed mRNA in the absence of chemical substance: 2.1
Yeast gene YJL034W
  The level of expressed mRNA in the presence of chemical substance/The level of expressed mRNA in the absence of chemical substance: 1.7
Yeast gene YJL212C
  The level of expressed mRNA in the presence of chemical substance/The level of expressed mRNA in the absence of chemical substance: 3.2
Yeast gene YJL219W
  The level of expressed mRNA in the presence of chemical substance/The level of expressed mRNA in the absence of chemical substance: 2.5
Yeast gene YJR077C
  The level of expressed mRNA in the presence of chemical substance/The level of expressed mRNA in the absence of chemical substance: 1.1
Yeast gene YJR106W
  The level of expressed mRNA in the presence of chemical substance/The level of expressed mRNA in the absence of chemical substance: 3.8
Yeast gene YJR121W
  The level of expressed mRNA in the presence of chemical substance/The level of expressed mRNA in the absence of chemical substance: 1.1
Yeast gene YKL016C
  The level of expressed mRNA in the presence of chemical substance/The level of expressed mRNA in the absence of chemical substance: 1.3
Yeast gene YKL146W
  The level of expressed mRNA in the presence of chemical substance/The level of expressed mRNA in the absence of chemical substance: 1.3
Yeast gene YKR039W
  The level of expressed mRNA in the presence of chemical substance/The level of expressed mRNA in the absence of chemical substance: 3.5
Yeast gene YKR067W
  The level of expressed mRNA in the presence of chemical substance/The level of expressed mRNA in the absence of chemical substance: 2.6
Yeast gene YLL028W
  The level of expressed mRNA in the presence of chemical substance/The level of expressed mRNA in the absence of chemical substance: 0.9
Yeast gene YLR081W
  The level of expressed mRNA in the presence of chemical substance/The level of expressed mRNA in the absence of chemical substance: 0.8
Yeast gene YLR295C
  The level of expressed mRNA in the presence of chemical substance/The level of expressed mRNA in the absence of chemical substance: 1.1
Yeast gene YLR348C
  The level of expressed mRNA in the presence of chemical substance/The level of expressed mRNA in the absence of chemical substance: 4.5
Yeast gene YLR378C
  The level of expressed mRNA in the presence of chemical substance/The level of expressed mRNA in the absence of chemical substance: 0.9
Yeast gene YMR011W
  The level of expressed mRNA in the presence of chemical substance/The level of expressed mRNA in the absence of chemical substance: 1.0
Yeast gene YMR162C
  The level of expressed mRNA in the presence of chemical substance/The level of expressed mRNA in the absence of chemical substance: 1.1
Yeast gene YMR203W
  The level of expressed mRNA in the presence of chemical substance/The level of expressed mRNA in the absence of chemical substance: 0.7
Yeast gene YNL055C
  The level of expressed mRNA in the presence of chemical substance/The level of expressed mRNA in the absence of chemical substance: 1.8
Yeast gene YNR072W
  The level of expressed mRNA in the presence of chemical substance/The level of expressed mRNA in the absence of chemical substance: 1.5
Yeast gene YOL119C
  The level of expressed mRNA in the presence of chemical substance/The level of expressed mRNA in the absence of chemical substance: 4.8
Yeast gene YOL156W
  The level of expressed mRNA in the presence of chemical substance/The level of expressed mRNA in the absence of chemical substance: 0.7
Yeast gene YOL163W
  The level of expressed mRNA in the presence of chemical substance/The level of expressed mRNA in the absence of chemical substance: 3.2
Yeast gene YOR035C
  The level of expressed mRNA in the presence of chemical substance/The level of expressed mRNA in the absence of chemical substance: 1.2
Yeast gene YOR130C
  The level of expressed mRNA in the presence of chemical substance/The level of expressed mRNA in the absence of chemical substance: 1.7
Yeast gene YOR153W
  The level of expressed mRNA in the presence of chemical substance/The level of expressed mRNA in the absence of chemical substance: 0.9
Yeast gene YOR273C
  The level of expressed mRNA in the presence of chemical substance/The level of expressed mRNA in the absence of chemical substance: 1.0
Yeast gene YOR316C
  The level of expressed mRNA in the presence of chemical substance/The level of expressed mRNA in the absence of chemical substance: 2.5
Yeast gene YOR328W
  The level of expressed mRNA in the presence of chemical substance/The level of expressed mRNA in the absence of chemical substance: 1.0
Yeast gene YOR332W
  The level of expressed mRNA in the presence of chemical substance/The level of expressed mRNA in the absence of chemical substance: 1.0
Yeast gene YOR348C
  The level of expressed mRNA in the presence of chemical substance/The level of expressed mRNA in the absence of chemical substance: 0.7
Yeast gene YPL036W
  The level of expressed mRNA in the presence of chemical substance/The level of expressed mRNA in the absence of chemical substance: 0.8
Yeast gene YPL134C
  The level of expressed mRNA in the presence of chemical substance/The level of expressed mRNA in the absence of chemical substance: 1.0
Yeast gene YPL271W
  The level of expressed mRNA in the presence of chemical substance/The level of expressed mRNA in the absence of chemical substance: 3.2
Yeast gene YPR192W
  The level of expressed mRNA in the presence of chemical substance/The level of expressed mRNA in the absence of chemical substance: 1.1
Yeast gene YPR194C
  The level of expressed mRNA in the presence of chemical substance/The level of expressed mRNA in the absence of chemical substance: 1.4
